Test results from ChEMBL document CHEMBL5126652, “Boron-Containing Pyrazole Compounds as JAK Inhibitors for Treating Inflammation, Autoimmune Diseases, and Cancer” (ACS Med Chem Lett, 2022).

What follows are molecules tested against Tyrosine-protein kinase JAK1 (Homo sapiens, UniProt P23458) (assay: Inhibition of JAK1 (unknown origin) preincubated for 20 mins followed by 33P-ATP addition and measured after 2 hrs by filter binding assay).
Sequence of Tyrosine-protein kinase JAK1 (P23458 whole entry): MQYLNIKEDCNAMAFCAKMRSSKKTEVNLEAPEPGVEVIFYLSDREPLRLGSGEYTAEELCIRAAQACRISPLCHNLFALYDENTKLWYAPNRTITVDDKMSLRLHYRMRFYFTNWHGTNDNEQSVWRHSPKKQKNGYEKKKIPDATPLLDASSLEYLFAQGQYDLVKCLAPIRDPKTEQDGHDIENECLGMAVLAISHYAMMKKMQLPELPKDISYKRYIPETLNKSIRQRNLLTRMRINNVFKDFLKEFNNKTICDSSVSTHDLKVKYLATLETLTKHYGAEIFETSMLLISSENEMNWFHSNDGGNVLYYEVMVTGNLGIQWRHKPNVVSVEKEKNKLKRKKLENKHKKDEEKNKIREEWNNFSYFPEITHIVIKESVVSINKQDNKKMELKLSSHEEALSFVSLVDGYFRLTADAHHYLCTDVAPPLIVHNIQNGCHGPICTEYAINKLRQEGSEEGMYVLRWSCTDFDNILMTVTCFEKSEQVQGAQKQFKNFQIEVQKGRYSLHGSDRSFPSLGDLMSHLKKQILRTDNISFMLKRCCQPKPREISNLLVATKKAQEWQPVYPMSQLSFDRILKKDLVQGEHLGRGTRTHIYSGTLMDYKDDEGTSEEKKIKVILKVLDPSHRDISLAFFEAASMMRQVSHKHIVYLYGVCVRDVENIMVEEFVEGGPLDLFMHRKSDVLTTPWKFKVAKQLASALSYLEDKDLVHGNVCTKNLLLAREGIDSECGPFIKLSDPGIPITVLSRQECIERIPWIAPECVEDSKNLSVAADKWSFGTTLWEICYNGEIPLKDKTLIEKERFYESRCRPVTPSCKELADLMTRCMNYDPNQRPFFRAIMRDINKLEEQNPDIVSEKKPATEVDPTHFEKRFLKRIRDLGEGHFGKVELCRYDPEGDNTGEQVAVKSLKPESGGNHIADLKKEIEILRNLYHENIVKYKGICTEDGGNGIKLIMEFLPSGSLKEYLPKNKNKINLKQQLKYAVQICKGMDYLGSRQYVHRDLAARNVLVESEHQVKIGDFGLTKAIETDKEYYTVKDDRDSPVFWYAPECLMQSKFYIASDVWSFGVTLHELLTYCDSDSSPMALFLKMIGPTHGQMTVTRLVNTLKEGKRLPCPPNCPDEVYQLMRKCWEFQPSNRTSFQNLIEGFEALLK

Structure (SMILES)	IC50
N#CC1CCCC1n1cc(C(N)=O)c(Nc2ccc3c(c2)C=CB(O)O3)n1 (stereo unspecified)	< 10 nM
N#CC1CCCC1n1cc(C(N)=O)c(Nc2ccc3c(c2)COB3O)n1 (stereo unspecified)	< 10 nM
N#CC1CCOCC1n1cc(C(N)=O)c(Nc2cc(Cl)c3c(c2)COB3O)n1 (stereo unspecified)	< 10 nM

Further lines, results first:

IC50	Structure (SMILES)
< 10 nM	N#CC1CCOCC1n1cc(C(N)=O)c(Nc2ccc3c(c2)C2CC2B(O)O3)n1 (stereo unspecified)
< 10 nM	N#CC1CCOCC1n1cc(C(N)=O)c(Nc2ccc3c(c2)C(Cl)=CB(O)O3)n1 (stereo unspecified)
< 10 nM	N#CC1CCOCC1n1cc(C(N)=O)c(Nc2cc(F)c3c(c2)COB3O)n1 (stereo unspecified)
